This test concerns HLA class I. Type of test: cell-based, Human.

For MIAQYTSAL [B7 COVID 16], the “HLA class I stabilization across alleles (in words)” value is given as “can stabilize a number of HLA class I alleles”.

For the origin of these results see article PMC8241654 (Cell, 2021).
